Results from ChEMBL document CHEMBL4364293, “Design, Synthesis, and Structure-Activity Relationship of 7-Propanamide Benzoxaboroles as Potent Anticancer Agents” (J Med Chem, 2019).

Experiments:
SK-OV-3 = assay: Antiproliferative activity against human SKOV3 cells after 72 hrs by MTT assay; format: functional, cell-based; conditions: SK-OV-3, 72 h
WI-38 = assay: Cytotoxicity against human WI38 cells after 72 hrs by MTT assay; format: cell-based; conditions: WI-38, 72 h
HCT-116 = assay: Antiproliferative activity against human HCT116 cells after 72 hrs by MTT assay; format: functional, cell-based; conditions: HCT-116, 72 h
MDA-MB-231 = assay: Antiproliferative activity against human MDA-MB-231 cells after 72 hrs by MTT assay; format: functional, cell-based; conditions: MDA-MB-231, 72 h

Row | IC50 (SK-OV-3) | IC50 (HCT-116) | IC50 (MDA-MB-231) | Compound | IC50 (WI-38)
1 | 0.54 µM | 1.4 µM | 0.72 µM | O=C(CCc1cccc2c1B(O)OC2)Nc1cccc(Br)c1 | 20 µM
2 | 0.72 µM | 0.65 µM | 0.44 µM | O=C(CCc1cccc2c1B(O)OC2)Nc1ccc(F)cc1 | 12 µM
3 | 0.048 µM | 0.16 µM | 0.088 µM | COc1ccc(-c2cccc(NC(=O)CCc3cccc4c3B(O)OC4)c2)cc1 | 1.4 µM
4 | 5 µM | 12 µM | 3.6 µM | O=C(CCc1cccc2c1B(O)OC2)Nc1ccc(Cl)cc1 | > 100 µM
5 | 88 µM | 50 µM | 93 µM | COc1cc(OC)cc(-c2cccc(NC(=O)CCc3cccc4c3COB4O)c2)c1 | > 100 µM
6 | 0.48 µM | 0.46 µM | 0.57 µM | O=C(CCc1cccc2c1B(O)OC2)Nc1cccc(-c2cccc(F)c2)c1 | 37 µM
7 | 0.044 µM | 0.053 µM | 0.04 µM | COc1cc(OC)cc(-c2cccc(NC(=O)CCc3cccc4c3B(O)OC4)c2)c1 | 1.7 µM
8 | 26 µM | 23 µM | 18 µM | O=C(CCc1cccc2c1B(O)OC2)Nc1ccccc1-c1ccccc1 | 77 µM
9 | 0.14 µM | 0.18 µM | 0.14 µM | CSc1ccc(-c2cccc(NC(=O)CCc3cccc4c3B(O)OC4)c2)cc1 | 3.8 µM
10 | 0.82 µM | 1.4 µM | 1.3 µM | C#Cc1ccccc1NC(=O)CCc1cccc2c1B(O)OC2 | 18 µM
11 | 0.39 µM | 0.58 µM | 0.41 µM | O=C(CCc1cccc2c1B(O)OC2)Nc1cccc(-c2cccc(C(F)(F)F)c2)c1 | 23 µM
12 | > 100 µM | > 100 µM | > 100 µM | O=C(CCc1cccc2c1B(O)OC2)NCc1ccccc1 | > 100 µM
13 | 0.15 µM | 0.11 µM | 0.15 µM | CSc1cccc(-c2cccc(NC(=O)CCc3cccc4c3B(O)OC4)c2)c1 | 2 µM
14 | > 100 µM | 81 µM | 90 µM | COc1cccc(-c2cccc(NC(=O)CCc3ccc4c(c3)COB4O)c2)c1 | > 100 µM
15 | 93 µM | 56 µM | 77 µM | COc1cc(OC)cc(-c2cccc(NC(=O)CCc3ccc4c(c3)COB4O)c2)c1 | > 100 µM
16 | > 100 µM | > 100 µM | > 100 µM | O=C(CCc1cccc2c1B(O)OC2)NCCc1ccccc1 | > 100 µM
17 | 0.12 µM | 0.14 µM | 0.11 µM | N#Cc1cccc(-c2cccc(NC(=O)CCc3cccc4c3B(O)OC4)c2)c1 | 7.3 µM
18 | 0.46 µM | 0.31 µM | 0.46 µM | O=C(CCc1cccc2c1B(O)OC2)Nc1cccc(-c2cccc(OC(F)(F)F)c2)c1 | 9.8 µM
19 | > 100 µM | 19 µM | 59 µM | CC(=O)c1ccc(-c2cccc(NC(=O)CCc3ccc4c(c3)B(O)OC4)c2)cc1 | > 100 µM
20 | > 100 µM | > 100 µM | > 100 µM | O=C(/C=C/c1cccc2c1B(O)OC2)Nc1ccccc1 | > 100 µM
21 | > 100 µM | > 100 µM | > 100 µM | O=C(O)CCc1cccc2c1B(O)OC2 | > 100 µM
22 | 62 µM | 21 µM | 49 µM | COc1cccc(-c2cccc(NC(=O)CCc3ccc4c(c3)B(O)OC4)c2)c1 | > 100 µM
23 | > 100 µM | > 100 µM | > 100 µM | COc1ccc(NC(=O)CCc2cccc3c2B(O)OC3)cc1OC | > 100 µM

Row | IC50 (SK-OV-3) | IC50 (HCT-116) | IC50 (MDA-MB-231) | Compound | IC50 (WI-38)
24 | > 100 µM | > 100 µM | > 100 µM | CC(C)(C)NC(=O)CCc1cccc2c1B(O)OC2 | > 100 µM
25 | 0.2 µM | 0.43 µM | 0.93 µM | COc1ccccc1NC(=O)CCc1cccc2c1B(O)OC2 | 1.6 µM
26 | 0.63 µM | 2.3 µM | 5.3 µM | O=C(CCc1cccc2c1B(O)OC2)Nc1cccc(I)c1 | 71 µM
27 | 19 µM | 64 µM | 71 µM | Cc1cc(C)c(NC(=O)CCc2cccc3c2B(O)OC3)c(C)c1 | 74 µM
28 | > 100 µM | > 100 µM | 87 µM | COc1cc(OC)cc(-c2cccc(NC(=O)CCc3ccccc3)c2)c1 | > 100 µM
29 | 0.5 µM | 0.55 µM | 0.51 µM | O=C(CCc1cccc2c1B(O)OC2)Nc1cccc(-c2ccc(C(F)(F)F)cc2)c1 | 26 µM
30 | 9.2 µM | 46 µM | 5.3 µM | O=C(CCc1cccc2c1B(O)OC2)Nc1ccc(Br)cc1 | 42 µM
31 | 0.9 µM | 1.7 µM | 0.85 µM | COc1ccc(NC(=O)CCc2cccc3c2B(O)OC3)cc1 | > 100 µM
32 | 0.3 µM | 0.35 µM | 0.25 µM | O=C(CCc1cccc2c1B(O)OC2)Nc1cccc(-c2cccc(Cl)c2)c1 | 58 µM
33 | > 100 µM | > 100 µM | > 100 µM | CCOC(=O)c1ccc(NC(=O)CCc2cccc3c2B(O)OC3)cc1 | > 100 µM
34 | > 100 µM | > 100 µM | > 100 µM | O=C(CCc1cccc2c1B(O)OC2)Nc1nccs1 | > 100 µM
35 | 51 µM | 50 µM | 33 µM | O=C(CCc1cccc2c1B(O)OC2)Nc1ccc(I)cc1 | 49 µM
36 | 0.86 µM | 4.5 µM | 1.1 µM | Cc1ccc(NC(=O)CCc2cccc3c2B(O)OC3)cc1 | > 100 µM
37 | > 100 µM | 24 µM | 29 µM | CC(C)(C)OC(=O)Nc1ccc(NC(=O)CCc2cccc3c2B(O)OC3)cc1 | > 100 µM
38 | 0.25 µM | 0.89 µM | 0.22 µM | O=C(CCc1cccc2c1B(O)OC2)Nc1cccc(-c2ccccc2)c1 | 12 µM
39 | 61 µM | 49 µM | 52 µM | COc1cccc(-c2cccc(NC(=O)CCc3cccc4c3C(O)OC4)c2)c1 (centres undefined) | 93 µM
40 | 78 µM | 22 µM | 12 µM | O=C(CCc1cccc2c1C(O)OC2)Nc1ccccc1 (centres undefined) | 42 µM
41 | > 100 µM | > 100 µM | > 100 µM | CCNC(=O)CCc1cccc2c1B(O)OC2 | > 100 µM
42 | 0.17 µM | 0.2 µM | 0.15 µM | O=C(CCc1cccc2c1B(O)OC2)Nc1cccc2ccccc12 | 1.2 µM
43 | 0.068 µM | 0.086 µM | 0.052 µM | CC(=O)c1cccc(-c2cccc(NC(=O)CCc3cccc4c3B(O)OC4)c2)c1 | 2.2 µM
44 | 57 µM | 48 µM | 41 µM | CC(=O)c1ccc(-c2cccc(NC(=O)CCc3cccc4c3COB4O)c2)cc1 | > 100 µM
45 | > 100 µM | > 100 µM | > 100 µM | O=C(CCc1cccc2c1B(O)OC2)NC1CCCCC1 | > 100 µM
46 | 0.56 µM | 0.73 µM | 0.64 µM | O=C(CCc1cccc2c1B(O)OC2)Nc1cccc(-c2ccc(OC(F)(F)F)cc2)c1 | 25 µM
